Reference: ChEMBL document CHEMBL1687833, “Genetic context and biochemical characterization of the IMP-18 metallo-beta-lactamase identified in a Pseudomonas aeruginosa isolate from the United States” (2011)
Values after ≈ are worked out from the molar mass of the structure shown.

What was measured:
[1] = tested on: Escherichia coli; experiment: Antimicrobial activity against Escherichia coli DH5alpha carrying Pseudomonas aeruginosa strain PS 297 IMP-18-pLBII after 18 hrs by microdilution broth method; format: functional; settings: DH5[alpha]
[2] = tested on: Escherichia coli; experiment: Antimicrobial activity against Escherichia coli DH5alpha carrying Pseudomonas aeruginosa strain PS 297 IMP-1-pLBII after 18 hrs by microdilution broth method; format: functional; settings: DH5[alpha]
[3] = tested on: Escherichia coli; experiment: Antimicrobial activity against Escherichia coli DH5alpha carrying empty pBC-SK after 18 hrs by microdilution broth method; format: functional; settings: DH5[alpha]
[4] = tested on: Pseudomonas aeruginosa; experiment: Activity of Pseudomonas aeruginosa strain PS 297 metallo-beta-lactamase IMP-18 expressed in Escherichia coli BL21(DE3) assessed as substrate hydrolysis using 100 uM nitrocefin
[5] = tested on: Pseudomonas aeruginosa; experiment: Ratio of Kcat to Km for Pseudomonas aeruginosa strain PS 297 metallo-beta-lactamase IMP18 expressed in Escherichia coli BL21(DE3) assessed as substrate hydrolysis using 100 uM nitrocefin
[6] = tested on: Pseudomonas aeruginosa; experiment: Activity of Pseudomonas aeruginosa strain PS 297 metallo-beta-lactamase IMP-1 expressed in Escherichia coli BL21(DE3) assessed as substrate hydrolysis using 100 uM nitrocefin
[7] = tested on: Pseudomonas aeruginosa; experiment: Ratio of Kcat to Km for Pseudomonas aeruginosa strain PS 297 metallo-beta-lactamase IMP-1 expressed in Escherichia coli BL21(DE3) assessed as substrate hydrolysis using 100 uM nitrocefin

| Structure (SMILES) | MIC [1] [µg/mL] | MIC [2] [µg/mL] | MIC [3] [µg/mL] | Km [4] [µM] | kcat [4] [s⁻¹] | kcat/Km [5] | Km [6] [µM] | kcat [6] [s⁻¹] | kcat/Km [7] |
| --- | --- | --- | --- | --- | --- | --- | --- | --- | --- |
| C[C@@H](O)[C@H]1C(=O)N2C(C(=O)O)=C(S[C@@H]3CN[C@H](C(=O)Nc4cccc(C(=O)O)c4)C3)[C@H](C)[C@H]12 | 0.12 (≈ 0.252 µM) | 2 (≈ 4.21 µM) | ≤ 0.015 | 2.6 | 0.03 | 1.2 ×10⁴ /M/s | 21 | 16 | 7.6 ×10⁵ /M/s |
| CO/N=C(\C(=O)N[C@@H]1C(=O)N2C(C(=O)[O-])=C(C[N+]3(C)CCCC3)CS[C@H]12)c1csc(N)n1 |  | 4 (≈ 8.32 µM) | 0.25 (≈ 0.52 µM) | 0.8 | 0.35 | 4.4 ×10⁵ /M/s | 11 | 7 | 6.6 ×10⁵ /M/s |
| CC1(C)S[C@@H]2[C@H](NC(=O)Cc3ccccc3)C(=O)N2[C@H]1C(=O)O |  |  |  | 90 | 54 | 6.2 ×10⁵ /M/s | 520 | 320 | 6.2 ×10⁵ /M/s |
| O=C(Cc1cccs1)N[C@@H]1C(=O)N2C(C(=O)O)=C(/C=C/c3ccc([N+](=O)[O-])cc3[N+](=O)[O-])CS[C@H]12 |  |  |  | 9 | 55 | 6.1 ×10⁶ /M/s | 27 | 63 | 2.3 ×10⁶ /M/s |
| CC1(C)S[C@@H]2[C@H](NC(=O)[C@H](N)c3ccccc3)C(=O)N2[C@H]1C(=O)O [AMPICILLIN] | 64 (≈ 183 µM) | 256 (≈ 733 µM) | 4 (≈ 11.4 µM) | 103 | 65 | 6.3 ×10⁵ /M/s | 200 | 950 | 4.8 ×10⁶ /M/s |
| C[C@H]1[C@H](NC(=O)/C(=N\OC(C)(C)C(=O)O)c2csc(N)n2)C(=O)N1S(=O)(=O)O [AZTREONAM] |  |  |  | > 1000 | < 0.01 |  | > 1000 | < 0.01 |  |
| CO/N=C(\C(=O)N[C@@H]1C(=O)N2C(C(=O)O)=C(COC(C)=O)CS[C@H]12)c1csc(N)n1 [CEFOTAXIME] | 32 (≈ 70.3 µM) | 8 (≈ 17.6 µM) | 0.25 (≈ 0.549 µM) | 3 | 0.7 | 2.3 ×10⁵ /M/s | 4 | 1.3 | 3.5 ×10⁵ /M/s |
| CO[C@@]1(NC(=O)C2SC(=C(C(N)=O)C(=O)O)S2)C(=O)N2C(C(=O)O)=C(CSc3nnnn3C)CS[C@@H]21 (stereo partly specified) [CEFOTETAN] | 32 (≈ 55.6 µM) | > 32 | 0.25 (≈ 0.434 µM) |  |  |  |  |  |  |
| CO[C@@]1(NC(=O)Cc2cccs2)C(=O)N2C(C(=O)O)=C(COC(N)=O)CS[C@@H]21 [CEFOXITIN] | 256 (≈ 599 µM) | > 256 | 4 (≈ 9.36 µM) |  |  |  |  |  |  |
| CC(C)(O/N=C(\C(=O)N[C@@H]1C(=O)N2C(C(=O)[O-])=C(C[n+]3ccccc3)CS[C@H]12)c1csc(N)n1)C(=O)O [CEFTAZIDIME] | 32 (≈ 58.5 µM) | 32 (≈ 58.5 µM) | 0.25 (≈ 0.457 µM) | 1.3 | 1 | 7.7 ×10⁵ /M/s | 44 | 8 | 1.8 ×10⁵ /M/s |
| CO/N=C(\C(=O)N[C@@H]1C(=O)N2C(C(=O)O)=C(CSc3nc(=O)c(O)nn3C)CS[C@H]12)c1csc(N)n1 [CEFTRIAXONE] | 4 (≈ 7.21 µM) | 8 (≈ 14.4 µM) | 0.25 (≈ 0.451 µM) |  |  |  |  |  |  |
| CO/N=C(\C(=O)N[C@@H]1C(=O)N2C(C(=O)O)=C(COC(N)=O)CS[C@H]12)c1ccco1 [CEFUROXIME] | 64 (≈ 151 µM) | 128 (≈ 302 µM) | 4 (≈ 9.43 µM) | 7 | 0.9 | 1.3 ×10⁵ /M/s |  |  |  |
| CC(=O)OCC1=C(C(=O)O)N2C(=O)[C@@H](NC(=O)Cc3cccs3)[C@H]2SC1 [CEPHALOTHIN] | 32 (≈ 80.7 µM) | 256 (≈ 646 µM) | 4 (≈ 10.1 µM) | 0.1 | 0.4 | 4 ×10⁶ /M/s | 21 |  | 2.4 ×10⁶ /M/s |
| C[C@@H](O)[C@H]1C(=O)N2C(C(=O)O)=C(SCCNC=N)C[C@H]12 [IMIPENEM ANHYDROUS] |  | 2 (≈ 6.68 µM) |  | 7 | 17 | 2.4 ×10⁶ /M/s | 39 | 46 | 1.2 ×10⁶ /M/s |
| C[C@@H](O)[C@H]1C(=O)N2C(C(=O)O)=C(S[C@@H]3CN[C@H](C(=O)N(C)C)C3)[C@H](C)[C@H]12 [MEROPENEM] | 0.06 (≈ 0.156 µM) | 2 (≈ 5.22 µM) | ≤ 0.015 | 8.4 | 0.05 | 6 ×10³ /M/s |  |  | 5 ×10⁵ /M/s |
| CCN1CCN(C(=O)N[C@@H](C(=O)N[C@@H]2C(=O)N3[C@@H]2SC(C)(C)[C@@H]3C(=O)O)c2ccccc2)C(=O)C1=O [PIPERACILLIN] | 1 (≈ 1.93 µM) | 1 (≈ 1.93 µM) | 1 (≈ 1.93 µM) | > 200 | > 10 | 5.1 ×10⁴ /M/s |  |  | 7.2 ×10⁵ /M/s |
| CO[C@@]1(NC(=O)C(C(=O)O)c2ccsc2)C(=O)N2[C@@H](C(=O)O)C(C)(C)S[C@@H]21 (stereo partly specified) [TEMOCILLIN] | 16 (≈ 38.6 µM) | 32 (≈ 77.2 µM) | 16 (≈ 38.6 µM) | > 1000 | > 0.75 | 7.5 ×10² /M/s | > 2000 |  | < 100 M⁻¹ s⁻¹ |
| CC1(C)S[C@@H]2[C@H](NC(=O)[C@H](C(=O)O)c3ccsc3)C(=O)N2[C@H]1C(=O)O [TICARCILLIN] | 256 (≈ 666 µM) | 512 (≈ 1330 µM) | 8 (≈ 20.8 µM) | 180 | 30 | 1.5 ×10⁵ /M/s | 740 | 1.1 | 1.5 ×10³ /M/s |
